Assay results as given in PMC5031509 (ACS chemical neuroscience, 2016).

How the values were obtained:
[1] = test system: panel of 96 kinase targets; assay: DiscoveRx KINOMEscan kinase panel; type: binding
[2] = Met ID; type: in vitro ADME; conditions: rat liver microsomes
[3] = in vivo; conditions: rat, iv, 1 mg/kg
[4] = plasma protein binding, rhesus; type: in vitro ADME; conditions: rhesus monkey
[5] = test system: panel of GPCRs, enzymes, ion channels, nuclear hormone receptors and transporters; assay: wider selectivity panel; conditions: all targets except MAO-B
[6] = in vivo PK, rhesus IV cassette; conditions: rhesus monkey, plasma
[7] = target: P-glycoprotein (Pgp) (Homo sapiens, UniProt P08183); assay: Permeability; type: in vitro ADME
Chain of P-glycoprotein (Pgp) (P08183 whole entry): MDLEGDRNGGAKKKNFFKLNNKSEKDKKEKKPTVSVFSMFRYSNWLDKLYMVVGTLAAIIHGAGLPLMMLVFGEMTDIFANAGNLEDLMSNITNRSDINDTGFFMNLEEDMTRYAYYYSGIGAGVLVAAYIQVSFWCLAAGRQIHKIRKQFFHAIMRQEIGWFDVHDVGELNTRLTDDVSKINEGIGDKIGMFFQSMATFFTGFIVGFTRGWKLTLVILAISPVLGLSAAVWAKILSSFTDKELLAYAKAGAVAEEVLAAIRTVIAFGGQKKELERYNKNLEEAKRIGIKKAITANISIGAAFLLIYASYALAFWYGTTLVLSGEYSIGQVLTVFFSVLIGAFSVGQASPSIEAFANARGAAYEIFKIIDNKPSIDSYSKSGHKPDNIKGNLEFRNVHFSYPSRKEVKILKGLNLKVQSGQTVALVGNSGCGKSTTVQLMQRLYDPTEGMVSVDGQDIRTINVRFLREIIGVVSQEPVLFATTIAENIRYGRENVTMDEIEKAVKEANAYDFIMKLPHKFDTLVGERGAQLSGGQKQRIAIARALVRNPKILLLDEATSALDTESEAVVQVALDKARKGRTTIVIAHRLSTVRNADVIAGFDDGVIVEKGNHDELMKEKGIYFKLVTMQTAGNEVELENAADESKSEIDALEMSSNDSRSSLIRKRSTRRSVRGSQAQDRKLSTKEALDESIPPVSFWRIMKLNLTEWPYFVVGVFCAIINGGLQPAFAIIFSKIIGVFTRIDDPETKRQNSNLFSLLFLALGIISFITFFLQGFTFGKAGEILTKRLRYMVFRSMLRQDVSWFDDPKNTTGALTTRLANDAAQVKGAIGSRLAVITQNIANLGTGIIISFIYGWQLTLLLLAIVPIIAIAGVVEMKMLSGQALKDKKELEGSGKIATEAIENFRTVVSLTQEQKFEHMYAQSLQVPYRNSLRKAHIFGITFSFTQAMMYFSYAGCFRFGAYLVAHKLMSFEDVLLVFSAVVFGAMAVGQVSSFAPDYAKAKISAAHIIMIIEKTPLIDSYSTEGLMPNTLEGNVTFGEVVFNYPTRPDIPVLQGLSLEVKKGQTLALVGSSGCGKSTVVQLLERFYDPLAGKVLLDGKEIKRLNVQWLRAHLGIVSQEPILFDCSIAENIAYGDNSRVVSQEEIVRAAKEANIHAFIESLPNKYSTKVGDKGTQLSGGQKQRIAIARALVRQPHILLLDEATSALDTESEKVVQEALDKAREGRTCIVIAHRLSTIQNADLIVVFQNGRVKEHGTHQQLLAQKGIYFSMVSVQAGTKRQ

[8] = plasma/brain PO snapshot study in rats; type: in vivo, rat
[9] = target: CYP2C19 (Homo sapiens, UniProt P33261); assay: CYP450 inhibition; type: in vitro ADME
Chain of CYP2C19 (P33261 whole entry): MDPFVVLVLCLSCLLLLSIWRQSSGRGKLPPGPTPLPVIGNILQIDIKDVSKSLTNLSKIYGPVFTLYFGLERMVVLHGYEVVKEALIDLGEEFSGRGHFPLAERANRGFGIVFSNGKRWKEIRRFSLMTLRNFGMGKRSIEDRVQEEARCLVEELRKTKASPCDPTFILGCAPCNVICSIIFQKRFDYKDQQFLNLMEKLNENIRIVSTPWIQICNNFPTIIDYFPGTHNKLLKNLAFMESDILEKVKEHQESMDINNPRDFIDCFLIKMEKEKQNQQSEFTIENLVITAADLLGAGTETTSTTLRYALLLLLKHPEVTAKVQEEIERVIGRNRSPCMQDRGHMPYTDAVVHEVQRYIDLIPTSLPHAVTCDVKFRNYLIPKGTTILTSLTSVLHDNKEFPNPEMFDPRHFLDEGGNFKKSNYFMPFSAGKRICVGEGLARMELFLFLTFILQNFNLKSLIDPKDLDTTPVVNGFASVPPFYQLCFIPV

[10] = in vivo; conditions: rat, po, 10 mg/kg
[11] = plasma protein binding, mouse; type: in vitro ADME
[12] = target: CYP3A4 (Homo sapiens, UniProt P08684); assay: CYP450 inhibition, cocktail approach in human liver microsomes; type: in vitro ADME
Chain of CYP3A4 (P08684 whole entry): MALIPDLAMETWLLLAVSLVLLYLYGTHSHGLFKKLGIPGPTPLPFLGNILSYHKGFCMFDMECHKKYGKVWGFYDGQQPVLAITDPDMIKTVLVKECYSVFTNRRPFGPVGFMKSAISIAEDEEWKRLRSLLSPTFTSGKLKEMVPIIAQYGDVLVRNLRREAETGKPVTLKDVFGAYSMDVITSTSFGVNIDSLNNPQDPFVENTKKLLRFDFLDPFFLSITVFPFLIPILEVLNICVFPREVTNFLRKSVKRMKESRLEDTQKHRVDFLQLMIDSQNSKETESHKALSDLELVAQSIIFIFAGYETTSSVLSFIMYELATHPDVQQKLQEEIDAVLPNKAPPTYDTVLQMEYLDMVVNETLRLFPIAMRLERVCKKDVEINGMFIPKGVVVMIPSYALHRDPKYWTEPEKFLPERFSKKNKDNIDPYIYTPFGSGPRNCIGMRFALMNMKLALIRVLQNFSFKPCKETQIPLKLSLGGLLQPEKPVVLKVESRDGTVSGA

[13] = test system: CYP1A2; assay: CYP1A2 induction in cryopreserved hepatocytes; type: cell-based, human
[14] = target: CYP2D6 (Homo sapiens, UniProt P10635); assay: CYP450 inhibition, cocktail approach in human liver microsomes; type: in vitro ADME
Chain of CYP2D6 (P10635 whole entry): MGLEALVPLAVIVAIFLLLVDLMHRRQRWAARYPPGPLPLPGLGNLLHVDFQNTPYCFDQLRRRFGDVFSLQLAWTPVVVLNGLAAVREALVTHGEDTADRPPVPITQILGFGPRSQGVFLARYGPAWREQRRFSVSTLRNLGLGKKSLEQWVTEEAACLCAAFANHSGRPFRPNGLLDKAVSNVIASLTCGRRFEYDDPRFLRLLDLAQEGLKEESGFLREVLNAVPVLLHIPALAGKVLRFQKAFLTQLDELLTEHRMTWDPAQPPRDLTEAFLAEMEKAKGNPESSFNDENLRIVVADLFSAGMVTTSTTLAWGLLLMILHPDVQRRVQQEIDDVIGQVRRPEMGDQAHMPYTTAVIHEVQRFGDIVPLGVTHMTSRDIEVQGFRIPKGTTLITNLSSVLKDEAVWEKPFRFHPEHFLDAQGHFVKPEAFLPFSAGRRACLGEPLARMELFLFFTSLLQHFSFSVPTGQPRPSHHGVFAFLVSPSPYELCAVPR

[15] = target: T1, CYP1A2 (Homo sapiens, UniProt P05177); assay: as above; type: in vitro ADME
T1 sequence (P05177 1-516): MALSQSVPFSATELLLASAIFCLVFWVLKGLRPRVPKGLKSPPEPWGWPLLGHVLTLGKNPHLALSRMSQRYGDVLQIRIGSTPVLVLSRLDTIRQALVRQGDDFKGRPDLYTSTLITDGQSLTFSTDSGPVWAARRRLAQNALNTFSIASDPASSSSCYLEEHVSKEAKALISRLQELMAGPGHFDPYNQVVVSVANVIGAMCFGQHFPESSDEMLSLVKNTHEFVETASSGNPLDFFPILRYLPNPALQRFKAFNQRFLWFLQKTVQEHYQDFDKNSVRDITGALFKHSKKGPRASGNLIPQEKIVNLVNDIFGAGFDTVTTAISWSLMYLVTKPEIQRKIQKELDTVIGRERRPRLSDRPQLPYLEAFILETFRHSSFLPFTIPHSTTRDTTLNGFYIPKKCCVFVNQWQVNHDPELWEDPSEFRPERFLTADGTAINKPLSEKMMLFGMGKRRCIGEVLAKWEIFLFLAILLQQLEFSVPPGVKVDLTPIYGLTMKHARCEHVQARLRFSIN

[16] = test system: TA98 and TA100
[17] = target: mGlu6 (Homo sapiens, UniProt O15303); assay: mGlu selectivity assays in fold-shift format; type: cell-based
Chain of mGlu6 (O15303 25-877): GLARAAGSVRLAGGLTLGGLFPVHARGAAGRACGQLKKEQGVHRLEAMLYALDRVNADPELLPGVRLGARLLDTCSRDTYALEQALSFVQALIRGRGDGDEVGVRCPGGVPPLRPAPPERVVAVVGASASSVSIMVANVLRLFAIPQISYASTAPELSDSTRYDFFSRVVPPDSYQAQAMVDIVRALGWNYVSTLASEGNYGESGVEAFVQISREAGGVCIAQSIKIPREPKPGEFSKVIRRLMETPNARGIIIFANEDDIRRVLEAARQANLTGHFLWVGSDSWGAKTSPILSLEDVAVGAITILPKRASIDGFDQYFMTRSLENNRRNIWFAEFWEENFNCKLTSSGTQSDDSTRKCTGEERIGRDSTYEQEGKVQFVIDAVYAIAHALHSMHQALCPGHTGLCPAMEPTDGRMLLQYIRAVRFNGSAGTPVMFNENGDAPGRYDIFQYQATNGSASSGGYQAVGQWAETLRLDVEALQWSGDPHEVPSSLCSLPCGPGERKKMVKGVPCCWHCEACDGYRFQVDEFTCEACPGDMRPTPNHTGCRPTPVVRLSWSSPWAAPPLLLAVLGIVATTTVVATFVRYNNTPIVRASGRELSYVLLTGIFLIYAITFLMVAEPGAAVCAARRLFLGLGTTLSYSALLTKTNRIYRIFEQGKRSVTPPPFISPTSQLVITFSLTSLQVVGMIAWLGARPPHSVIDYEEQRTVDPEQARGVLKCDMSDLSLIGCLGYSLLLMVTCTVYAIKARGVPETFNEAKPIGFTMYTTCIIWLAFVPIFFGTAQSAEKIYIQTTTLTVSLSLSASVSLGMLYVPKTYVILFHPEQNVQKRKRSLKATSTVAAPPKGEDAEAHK

[18] = test system: nine cardiac ion channels (including hERG); assay: ChanTest Cardiac Channel Panel IC50 screen; conditions: human
[19] = target: rat mGlu4 (Rattus norvegicus, UniProt P31423); assay: functional assay using the rat mGlu4 protein; type: cell-based
Chain of rat mGlu4 (P31423 33-912): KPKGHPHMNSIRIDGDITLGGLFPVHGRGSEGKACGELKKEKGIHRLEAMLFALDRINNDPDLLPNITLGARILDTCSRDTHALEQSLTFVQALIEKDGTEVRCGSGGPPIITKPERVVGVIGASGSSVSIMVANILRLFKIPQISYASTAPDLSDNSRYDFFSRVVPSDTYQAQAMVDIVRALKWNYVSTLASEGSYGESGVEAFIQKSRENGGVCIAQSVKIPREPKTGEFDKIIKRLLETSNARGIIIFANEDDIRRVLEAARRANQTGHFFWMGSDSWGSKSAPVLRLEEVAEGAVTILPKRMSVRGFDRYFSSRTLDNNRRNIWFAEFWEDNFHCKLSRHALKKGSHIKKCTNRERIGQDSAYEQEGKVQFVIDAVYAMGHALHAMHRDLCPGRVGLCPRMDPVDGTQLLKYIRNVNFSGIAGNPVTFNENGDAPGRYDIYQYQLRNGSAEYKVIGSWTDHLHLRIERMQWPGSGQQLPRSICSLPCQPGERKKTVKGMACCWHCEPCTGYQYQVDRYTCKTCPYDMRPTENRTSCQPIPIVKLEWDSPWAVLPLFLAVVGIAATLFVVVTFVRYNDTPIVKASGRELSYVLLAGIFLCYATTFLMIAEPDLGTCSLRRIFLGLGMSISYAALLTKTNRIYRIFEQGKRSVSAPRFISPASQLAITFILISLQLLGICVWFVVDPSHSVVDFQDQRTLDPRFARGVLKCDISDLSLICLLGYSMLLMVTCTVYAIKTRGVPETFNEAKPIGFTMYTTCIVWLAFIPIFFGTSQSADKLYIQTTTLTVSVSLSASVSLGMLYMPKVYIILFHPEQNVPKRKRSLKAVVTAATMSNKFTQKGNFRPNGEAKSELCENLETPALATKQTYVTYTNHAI

[20] = target: T2, monoamine oxidase-B (MAO-B) (Homo sapiens, UniProt P27338); assay: wider selectivity panel, MAO-B
T2 sequence (P27338 1-520): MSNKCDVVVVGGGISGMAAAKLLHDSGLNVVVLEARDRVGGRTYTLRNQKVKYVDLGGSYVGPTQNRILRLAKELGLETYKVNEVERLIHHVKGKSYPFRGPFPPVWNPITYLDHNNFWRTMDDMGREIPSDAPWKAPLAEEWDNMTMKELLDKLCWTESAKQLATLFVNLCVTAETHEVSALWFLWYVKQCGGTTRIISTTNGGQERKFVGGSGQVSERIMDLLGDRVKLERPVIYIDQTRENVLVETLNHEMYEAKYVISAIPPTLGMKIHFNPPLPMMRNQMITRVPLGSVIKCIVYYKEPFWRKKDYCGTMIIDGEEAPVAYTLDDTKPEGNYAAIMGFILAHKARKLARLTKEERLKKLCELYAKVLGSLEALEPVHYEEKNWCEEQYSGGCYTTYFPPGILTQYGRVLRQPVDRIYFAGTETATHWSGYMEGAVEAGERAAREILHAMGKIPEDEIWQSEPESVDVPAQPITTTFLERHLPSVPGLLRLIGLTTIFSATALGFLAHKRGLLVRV

[21] = target: CYP2C9 (Homo sapiens, UniProt P11712); assay: CYP450 inhibition, cocktail approach in human liver microsomes; type: in vitro ADME
Chain of CYP2C9 (P11712 whole entry): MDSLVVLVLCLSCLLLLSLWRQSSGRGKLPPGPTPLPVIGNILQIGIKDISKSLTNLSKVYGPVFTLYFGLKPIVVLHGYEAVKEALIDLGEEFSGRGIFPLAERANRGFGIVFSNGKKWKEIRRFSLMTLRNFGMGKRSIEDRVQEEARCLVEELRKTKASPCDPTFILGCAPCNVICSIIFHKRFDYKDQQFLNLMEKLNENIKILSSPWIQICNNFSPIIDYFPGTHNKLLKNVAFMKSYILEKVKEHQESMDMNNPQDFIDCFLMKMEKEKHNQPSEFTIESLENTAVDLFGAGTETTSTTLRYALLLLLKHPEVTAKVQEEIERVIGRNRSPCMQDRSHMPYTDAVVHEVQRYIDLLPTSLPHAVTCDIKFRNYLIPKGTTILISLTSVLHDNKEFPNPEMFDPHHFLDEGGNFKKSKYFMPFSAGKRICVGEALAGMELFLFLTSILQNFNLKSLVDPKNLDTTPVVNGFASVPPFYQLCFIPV

[22] = plasma protein binding, rat; type: in vitro ADME
[23] = plasma protein binding, dog; type: in vitro ADME
[24] = plasma protein binding, human; type: in vitro ADME

Fc1ccc(Nc2n[nH]c3cccnc23)cc1Cl [Compound 26, N-(3-chloro-4-fluorophenyl)-1H-pyrazolo[4,3-b]pyridin-3-amine]
activity against 96 kinase targets [1]: < 30% | major metabolite [2]: oxodefluorination | AUC [3]: 608 ng·h/mL | MRT [3]: 2.2 h | Vd [3]: 4 L/kg | clearance [3]: 29 mL/min/kg | half-life [3]: 1.52 h | fraction unbound [4]: 0.014 | activity against wider panel of targets [5]: inactive | clearance [6]: 13 mL/min/kg | half-life [6]: 3 h | substrate for P-glycoprotein [7]: not a substrate | Papp A→B ([7]; not told): 24 ×10⁻⁶ cm/s | Papp B→A ([7]; not told): 14 ×10⁻⁶ cm/s | brain AUC ([8]; rat CNS PO PBL (0−6 h)): 18 415 ng·h/mL | Kp at 6 h ([8]; rat, brain/plasma, po): 2.1 | AUC ([8]; rat, plasma, po): 8770 ng·h/mL | IC50 [9]: 6.1 µM | bioavailability ([10]; in vivo): 95% | AUC ([10]; plasma): 7420 ng·h/mL | Cmax ([10]; plasma): 875 ng/mL | Tmax ([10]; plasma): 2 h | fraction unbound [11]: 0.019 | IC50 [12]: > 30 µM | CYP1A2 induction Emax [13]: 104 fold-induction | EC50 ([13]; human): 9.8 µM | IC50 [14]: > 30 µM | IC50 [15]: < 0.1 µM | mini-AMES result [16]: negative | activity at mGlu6 [17]: functionally interact (with equipotency) | IC50 [18]: > 100 µM | EC50 [19]: 0.046 µM | activity against MAO-B [20]: 330 nM | IC50 [21]: 8.9 µM | fraction unbound ([22]; plasma protein binding (%Fu)): 0.028 | fraction unbound ([22]; plasma protein binding (Fu), rat plasma, fraction unbound): 0.028 | fraction unbound [23]: 0.009 | plasma protein binding (%Fu) [24]: 1.7% | fraction unbound ([24]; plasma): 0.017
